Data taken from patent publication US20090253134A1, “Cellular Pyrogen Test” (Fraunhofer-Gesellschaft zur Forderung der angewandten …, priority 2006, published 2009).
“Also recorded” adds a separate entry of the source.

Columns and labels:
[1] = biological target: T1, TLR-4/CD14 (Homo sapiens, UniProt O00206+Q9Y6Y9); assay: NIH-3T3 TLR-4/CD14 SEAP reporter gene pyrogen test; format: cell-based
T1 construct: expressed in transfected cells; host or cells: NIH-3T3 (murine fibroblasts), clone 4/5
Source text: The cell line NIH-3T3 was transfected with a TLR-4/CD14 complex as well as the reporter gene plasmid SEAP/ELAM-1.
The endotoxin (LPS)-mediated induction of TLR-4 leads according to a signal cascade to activation of the transcription factor NF-κB. Expression of the reporter gene SEAP is controlled by an ELAM-1 promoter inducible by NF-κB. NF-κB activation and therefore specifically secretion of SEAP then occurs on induction of TLR-4 by the endotoxin lipopolysaccharide LPS.
NIH-3T3 TLR-4/CD14 clone 4/5 P35 in a density of 30,000 to 200,000 cells/well (24-well) (corresponding cell count for other well volume) are inoculated in 500 μL/well in 0.5% FCS medium o/n for adhesion.
On the next day detection occurs by incubation with 300 μL/well detection medium, which is added directly to the induced cells: in the induced cells SEAP activity converts the substrate BCIP in the detection medium to a dark blue insoluble end product (indigo). As an alternative SEAP activity in the induced cells converts the substrate pNPP in the detection medium to a light yellow soluble color complex, which is determined photometrically at about 405 nm. The photometric analysis occurs about 2 hours after addition of the detection medium.
In one variant transfected cell lines are frozen in the corresponding assay format, here: a cell culture-well-plate (multiwell plate) in corresponding density (200,000 cells/well in 500 μL each (in 24-well)).
After thawing of the kit, addition of DMEM culture medium occurs for adhesive of the cells overnight. A medium with HEPES buffer permits incubation of the cell test in a heating cabinet, i.e., without CO2 gassing. Induction is carried out per test by addition of 100 ng/mL LPS. The detection is conducted after 24 hours by addition of 300 μL/well BCIP detection medium.
On a multiwell plate (96-well) NIH-3T3 TLR-4/CD14 SEAP P40 cells were frozen in a density of 30,000 cells/well in 100 μL medium (DMEM 80 mmol/L HEPES, 30% FCS and 5% DMSO) in suspension at −80° C.
After 72 hours to 4 weeks at −80° C. the cells were thawed by addition of 100 μL medium (10% FCS) at 37° C. […]

[2] = biological target: T2, TLR-5 (Homo sapiens, UniProt O60602); assay: Comparative TLR-5 test with HELA cells transfected with TLR-5 SEAP; format: cell-based; design: expressed in transfected cells; conditions: 2 μg/mL flagellin; induced and noninduced controls both intensely blue
T2 sequence (O60602 21-858): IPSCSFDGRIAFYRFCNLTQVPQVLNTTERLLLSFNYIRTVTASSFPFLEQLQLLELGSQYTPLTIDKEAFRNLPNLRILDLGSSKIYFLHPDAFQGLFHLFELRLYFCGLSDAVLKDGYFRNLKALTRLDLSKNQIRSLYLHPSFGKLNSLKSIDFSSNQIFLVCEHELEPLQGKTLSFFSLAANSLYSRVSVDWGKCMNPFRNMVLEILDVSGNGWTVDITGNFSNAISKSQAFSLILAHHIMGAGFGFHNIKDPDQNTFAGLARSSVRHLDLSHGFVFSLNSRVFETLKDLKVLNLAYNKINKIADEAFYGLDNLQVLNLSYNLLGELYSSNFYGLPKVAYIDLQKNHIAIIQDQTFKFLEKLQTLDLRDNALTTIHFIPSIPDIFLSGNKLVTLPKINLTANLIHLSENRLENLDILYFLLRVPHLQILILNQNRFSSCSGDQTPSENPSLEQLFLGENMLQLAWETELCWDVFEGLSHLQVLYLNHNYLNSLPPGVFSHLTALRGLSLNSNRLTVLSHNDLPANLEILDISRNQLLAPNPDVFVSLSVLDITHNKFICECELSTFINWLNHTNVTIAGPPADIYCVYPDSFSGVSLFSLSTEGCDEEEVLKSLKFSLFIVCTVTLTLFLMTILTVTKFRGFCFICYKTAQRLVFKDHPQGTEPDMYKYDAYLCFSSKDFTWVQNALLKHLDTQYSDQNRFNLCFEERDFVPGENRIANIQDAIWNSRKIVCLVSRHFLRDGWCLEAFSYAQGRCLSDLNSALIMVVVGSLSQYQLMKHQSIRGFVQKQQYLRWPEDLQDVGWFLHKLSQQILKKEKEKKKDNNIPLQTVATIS
Description: FIG. 13 comparative experiment: TLR-5 test with HELA cells transfected with TLR-5 SEAP induced with 2 μg/mL flagellin; both the induced cells and the noninduced controls show intense blue coloration.

[3] = biological target: T2, TLR-5; assay: NIH-3T3 TLR-5 SEAP reporter gene test; format: cell-based; design: expressed in transfected cells; host or cells: NIH-3T3 (murine fibroblasts); conditions: 2 μg/mL flagellin; BCIP
Description: The cell line NIH-3T3 was transfected with TLR-5 and the reporter gene plasmid SEAP. The measures correspond to example 1.
NIH-3T3 clone TLR-5 was inoculated in a density of 30,000 to 200,000 cells/well (24-well) in 500 μL/well in 0.5% FCS medium; induction occurs with 2 μg/mL flagellin; detection by incubation with 300 μL/well detection medium with BCIP.

[4] = biological target: T3, TLR-4/CD14 (Homo sapiens, UniProt O00206); assay: Comparative TLR-4 colour test with HEK blue 293 and other 293 fibroblasts transfected with TLR-4/CD14 SEAP; format: cell-based; conditions: 100 ng/mL LPS; induced and noninduced controls both turn blue
T3 construct: expressed in transfected cells; host or cells: HEK blue 293 and other 293 cells (clones K2, K4)
T3 sequence (O00206 24-839): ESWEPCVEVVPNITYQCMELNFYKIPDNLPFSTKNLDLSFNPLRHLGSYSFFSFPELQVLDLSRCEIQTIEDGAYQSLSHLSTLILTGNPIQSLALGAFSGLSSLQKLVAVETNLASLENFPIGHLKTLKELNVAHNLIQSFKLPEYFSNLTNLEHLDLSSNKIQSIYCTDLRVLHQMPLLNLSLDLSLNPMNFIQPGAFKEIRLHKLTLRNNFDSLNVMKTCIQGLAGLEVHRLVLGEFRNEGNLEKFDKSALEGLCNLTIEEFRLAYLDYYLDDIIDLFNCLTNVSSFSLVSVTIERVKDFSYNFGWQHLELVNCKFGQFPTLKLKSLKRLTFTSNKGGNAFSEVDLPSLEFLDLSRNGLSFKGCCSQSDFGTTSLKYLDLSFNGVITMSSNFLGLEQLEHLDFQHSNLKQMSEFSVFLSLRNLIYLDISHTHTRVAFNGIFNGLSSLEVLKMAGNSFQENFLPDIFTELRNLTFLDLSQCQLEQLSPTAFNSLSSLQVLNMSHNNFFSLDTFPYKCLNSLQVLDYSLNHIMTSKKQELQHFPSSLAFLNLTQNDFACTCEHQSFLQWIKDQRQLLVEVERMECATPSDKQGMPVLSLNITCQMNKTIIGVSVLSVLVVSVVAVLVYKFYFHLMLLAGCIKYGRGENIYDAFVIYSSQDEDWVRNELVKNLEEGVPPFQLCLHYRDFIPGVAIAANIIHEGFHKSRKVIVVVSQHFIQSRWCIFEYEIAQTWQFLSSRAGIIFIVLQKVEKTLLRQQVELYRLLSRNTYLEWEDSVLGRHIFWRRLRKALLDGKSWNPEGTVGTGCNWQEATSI
Description: (§1) HEK blue 293 fibroblasts and other 293 fibroblasts were transfected with TLR-4/CD14 SEAP and induced with 100 ng/mL LPS. All other process parameters were chosen as in example 1 according to the invention.

[5] = biological target: T3, TLR-4/CD14; assay: SDS-PAGE/Western Blot analysis of SEAP expression in HEK293 and other 293 cells transfected with TLR-4/CD14 SEAP; format: cell-based; conditions: 100 ng/mL LPS; cell pellets
Description: as §1
In addition, a Western Blot analysis of gene expression was conducted in known fashion: first antibody: anti-SEAP; conjugated second antibody: anti-mouse POD; marker: SeeBlue® Plus2; prestained standard.

[6] = test system: Limulus amebocyte lysate proenzyme; conditions: cited from earlier work
[7] = test system: human whole blood cells; conditions: cited from earlier work

T1 sequence (O00206 24-839): as above
T1 sequence (Q9Y6Y9 17-160 limits assumed): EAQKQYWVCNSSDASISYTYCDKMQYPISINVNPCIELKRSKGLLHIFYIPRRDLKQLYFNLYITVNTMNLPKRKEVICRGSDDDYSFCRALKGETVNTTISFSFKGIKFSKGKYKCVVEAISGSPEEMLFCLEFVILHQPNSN

In the case of Poly IC, the “color change of detection medium (specificity)” value ([1]; induced with 25 μg/mL nonspecific pyrogen each) is reported as “no color change”.

With flagellin the “specific induction / color test” value [2] was “No specific induction is possible” and the “blue coloration of induced cells” value [3] was “specific blue coloration”.

With lipopolysaccharide [LPS] the “blue coloration of induced cells, frozen and rethawed cells” value ([1]; 100 pg/mL, NIH-3T3 TLR-4/CD14 SEAP P40, induction after 24 hours, detection after 3 hours) was “specific blue coloration”, the “SEAP activity, BCIP color reaction after thawing” value ([1]; 100 ng/mL LPS, thawed NIH-3T3 clone 4/5 TLR-4/CD14, BCIP) was “deep dark blue” and the “specific induction / color test” value [4] was “no specific induction; also recorded: a specific detection is not possible”. The “alkaline phosphatase (SEAP) expression, induced vs noninduced cells” value [5] was “in the same amount”, the “detection limit / sensitivity of LAL” value [6] was 3 pg/mL and the “sensitivity of IPT” value [7] was 20 to 50 pg/mL.
